Where two headings read alike, the source gives them in different places.
Experiments:
[1] = Average score of NAC and NAL depletion and phototoxicity or photoallergy determination, UV detection; conditions: for Average score (%): single compound
Procedure: (§1) After being spun down in a centrifuge, the reaction solutions are irradiated with light at 2,000 μW/cm^2 using an SXL-2500V2 ultraviolet irradiation apparatus (manufactured by SERIC., Ltd.) for 1 hour, followed by incubation at 25° C. in a light-shielded state for 23 hours. As controls without light irradiation, reaction solutions are prepared, followed by incubation at 25° C. in a light-shielded state for 24 hours.
(§2) As the conditions without light irradiation, the 1 mmol/L test substance solutions were each reacted with the nucleophilic reagents, namely, NAC and NAL, at 25° C. for 24 hours. As the conditions with light irradiation, the 1 mmol/L test substance solutions were each irradiated at room temperature with light at 2,000 μW/cm^2 for 1 hour and were then reacted at 25° C. for 23 hours.
(§3) All reactions were performed on the 96-well plate. For each sample, n=3. As comparative controls, reaction solutions to which only the solvents, which are used to dissolve the test substances, were added were also prepared. The reaction solutions were prepared such that the concentrations of NAC and NAL were 5 μmon and the concentration of the test substance was 0.25 mmol/L. After 24 hours, HPLC measurements were made by two detection methods, namely, light absorption detection on a photodiode array (PDA) detector and fluorescence detection on a fluorescence detector. For PDA detection, a trifluoroacetic acid (TFA) aqueous solution was added to the reaction solutions to a final TFA concentration of 0.5% (v/v) before use in the HPLC measurements. For fluorescence detection, each sample was diluted tenfold with a 0.5% (v/v) trifluoroacetic acid (TFA) aqueous solution before use in the HPLC measurements.
(§4) The depletions of the nucleophilic reagents (NAC and NAL) were determined by UV detection at 281 nm or fluorescence detection at an excitation wavelength of 284 nm and a fluorescence wavelength of 333 nm under the HPLC measurement conditions given in “(5) HPLC Measurement” above.
(§5) As the conditions without light irradiation, the liquid mixtures were each reacted with the nucleophilic reagents, namely, NAC and NAL, at 25° C. for 24 hours. As the conditions with light irradiation, the liquid mixtures were each irradiated at room temperature with light at 2,000 μW/cm^2 for 1 hour and were then reacted at 25° C. for 23 hours.
(§6) All reactions were performed on the 96-well plate. For each sample, n=3. Reaction solutions to which only the solvent used for calculation of the depletions of NAC and NAL was added were also prepared. The reaction solutions were prepared such that the concentrations of NAC and NAL were 5 μmon and the concentration of the test substance was 0.5 mmol/L. After 24 hours, HPLC measurements were made by two detection methods, namely, light absorption detection on a photodiode array (PDA) detector and fluorescence detection on a fluorescence detector. For PDA detection, a trifluoroacetic acid (TFA) aqueous solution was added to the reaction solutions to a final TFA concentration of 0.5% (v/v) before use in the HPLC measurements.

[2] = cited from earlier work
[3] = in vivo; cited from earlier work
[4] = Average score of NAC and NAL depletion and phototoxicity or photoallergy determination, fluorescence detection
Procedure: as §1, §2, §3, §4, §5, §6

[5] = NAL depletion under and without ultraviolet irradiation, HPLC with fluorescence detection (284 nm excitation, 333 nm fluorescence)
Procedure: (§7) A 1 mmol/L solution of a test substance in water, acetonitrile, acetone, or 5% by mass dimethyl sulfoxide (DMSO)/acetonitrile solution is prepared and used as a test substance solution. A solvent in which the test substance is soluble at a concentration of 1 mmol/L is used. If the test substance is soluble in a plurality of solvents, the solvent is selected in the following order of priority: water, acetonitrile, acetone, and 5% by mass DMSO/acetonitrile.
(§8) Test substance solutions are prepared on a 96-well plate (U96 PP-0.5 ML NATURAL, Thermo (NUNC)), mainly using a 12-channel pipette, and the reagents are added in the following amounts:
(§9) Nucleophilic reagents (NAC and NAL): 150 μL
Test substance solution: 50 μL
(§10) The plate is firmly sealed with a plate seal (resistant embossed seal, Shimadzu GLC Ltd.) and is shaken on a plate shaker (Titramax 100, Heidolph Instruments). After being spun down in a centrifuge, the reaction solutions are irradiated with light at 2,000 μW/cm^2 using an SXL-2500V2 ultraviolet irradiation apparatus (manufactured by SERIC., Ltd.) for 1 hour, followed by incubation at 25° C. in a light-shielded state for 23 hours. As controls without light irradiation, reaction solutions are prepared, followed by incubation at 25° C. in a light-shielded state for 24 hours.
(§11) For measurements using a fluorescence detector, 180 μL of the reaction stop solution (0.5% (v/v) TFA) is dispensed into each well of another plate in advance, and 20 μL of each sample is added so that the sample is diluted 10-fold.
(§12) The depletion of NAC or NAL is calculated from the average (n=3) peak area of unreacted NAC or NAL after the reaction and the average (n=3) peak area of NAC or NAL in a standard solution (no test substance added) by the following equations:
(§13) NAL depletion (% depletion)=[1−(average peak area of unreacted NAL after reaction/average peak area of NAL) in standard solution (no test substance added)]×100
(§14) The average peak area of unreacted NAL after the reaction is the average area calculated from three measurements on unreacted NAL after the reaction. The average peak area of NAL in a standard solution (no test substance added) is the average area calculated from three measurements on NAL in a reaction solution prepared by adding the solvent used for dissolution of the test substance instead of the test substance solution.
as §2, §3

[6] = NAL depletion under and without ultraviolet irradiation, HPLC with UV detection (281 nm)
Procedure: as §7, §8, §9
Test substance solution: 50 μL
as §10, §11, §12, §13, §14, §2, §3

[7] = NAC depletion under and without ultraviolet irradiation, HPLC with UV detection (281 nm)
Procedure: as §7, §8, §9
Test substance solution: 50 μL
as §10, §11, §12
(§15) NAC depletion (% depletion)=[1−(average peak area of unreacted NAC after reaction/average peak area of NAC) in standard solution (no test substance added)]×100
(§16) The average peak area of unreacted NAC after the reaction is the average area calculated from three measurements on unreacted NAC after the reaction. The average peak area of NAC in a standard solution (no test substance added) is the average area calculated from three measurements on NAC in a reaction solution prepared by adding the solvent used for dissolution of the test substance instead of the test substance solution.
as §2, §3

[8] = NAC depletion under and without ultraviolet irradiation, HPLC with fluorescence detection (284 nm excitation, 333 nm fluorescence)
Procedure: as §7, §8, §9
Test substance solution: 50 μL
as §10, §11, §12, §15, §16, §2, §3

[9] = without light irradiation, single compound
[10] = 25° C. 24 hours light-shielded, test substance solution 1 mmol/L
[11] = 2,000 μW/cm^2 for 1 hour then 25° C. 23 hours, test substance solution 1 mmol/L
[12] = photoallergic compound concentration 0.05 mg/mL
[13] = photoallergic compound concentration 0.2 mg/mL
[14] = photoallergic compound concentration 0.5 mg/mL
[15] = without light irradiation, photoallergic compound concentration 0.05 mg/mL
[16] = without light irradiation, photoallergic compound concentration 0.2 mg/mL
[17] = without light irradiation, photoallergic compound concentration 0.5 mg/mL
[18] = under light irradiation, photoallergic compound concentration 0.05 mg/mL
[19] = under light irradiation, photoallergic compound concentration 0.5 mg/mL
[20] = under light irradiation, photoallergic compound concentration 0.2 mg/mL

## CC(O)CO (racemic) [No. 54, Propylene glycol]
[1]; under light irradiation
  Average score (%): 0.1%
[2]; in vivo
  In vivo photoallergy: Negative
[3]
  In vivo phototoxicity: Negative
[4]; under light irradiation, single compound
  Average score (%): 0.3%

## [Na+].[O-][n+]1ccccc1[S-] [compound 26]
[5]; single compound
  Difference in depletion (under light irradiation - without light irradiation) NAL (%): 13.3%
[5]; [9]
  NAL Depletion (%): 0.0%
[1]; average of NAC and NAL depletion
  Average score (%) under light irradiation: 61.0%
[2]; reported in References 1 and 2
  In vivo photoallergy: Positive
[6]; [10]
  NAL Depletion (%) without light irradiation: −34.1%
[6]; [11]
  NAL Depletion (%) under light irradiation: 21.9%
[7]
  Difference in depletion (under light irradiation - without light irradiation) NAC (%): 89.3%
[7]; [10]
  NAC Depletion (%) without light irradiation: 10.7%
[7]; [11]
  NAC Depletion (%) under light irradiation: 100.0%
[4]; single compound
  Difference in depletion (under light irradiation - without light irradiation) Average score (%): 52.4%
[4]; [9]
  Average score (%): 4.2%
[8]; single compound
  Difference in depletion (under light irradiation - without light irradiation) NAC (%): 91.6%
[8]; [9]
  NAC Depletion (%): 8.4%

## C[S+](C)[O-] [No. 58, Dimethyl sulfoxide]
[1]; under light irradiation
  Average score (%): 0.4%
[2]; in vivo
  In vivo photoallergy: Negative
[3]
  In vivo phototoxicity: Negative

## Nc1ccc(S(N)(=O)=O)cc1 [3-4, Sulfanilamide]
[5]; [12]
  Difference in depletion (under light irradiation - without light irradiation) NAL (%): 2.4%
  NAL Depletion (%) under light irradiation: 2.4%
[5]; [13]
  Difference in depletion (under light irradiation - without light irradiation) NAL (%): 1.8%
  NAL Depletion (%) under light irradiation: 1.8%
[5]; [14]
  Difference in depletion (under light irradiation - without light irradiation) NAL (%): 3.1%
  NAL Depletion (%) under light irradiation: 3.1%
[5]; [15]
  NAL Depletion (%) without light irradiation: 0.0%
[5]; [16]
  NAL Depletion (%) without light irradiation: 0.0%
[5]; [17]
  NAL Depletion (%) without light irradiation: 0.0%
[1]; [12]
  Difference in depletion (under light irradiation - without light irradiation) Average score (%): 10.2%
  Average score (%) without light irradiation: 0.0%
[1]; [14]
  Difference in depletion (under light irradiation - without light irradiation) Average score (%): 39.7%
  Average score (%) without light irradiation: 0.0%
[1]; [18]
  Average score (%) under light irradiation: 10.2%
[1]; [19]
  Average score (%) under light irradiation: 39.7%
[1]; [13]
  Average score (%) without light irradiation: 0.0%
[6]; [12]
  Difference in depletion (under light irradiation - without light irradiation) NAL (%): 0.0%
[6]; [13]
  Difference in depletion (under light irradiation - without light irradiation) NAL (%): 0.3%
[6]; [14]
  Difference in depletion (under light irradiation - without light irradiation) NAL (%): 0.0%
[6]; [18]
  NAL Depletion (%) under light irradiation: 0.0%
[6]; [20]
  NAL Depletion (%) under light irradiation: 0.3%
[6]; [19]
  NAL Depletion (%) under light irradiation: 0.0%
[6]; [15]
  NAL Depletion (%) without light irradiation: 0.0%
[6]; [16]
  NAL Depletion (%) without light irradiation: 0.0%
[6]; [17]
  NAL Depletion (%) without light irradiation: 0.0%
[7]; [13]
  Difference in depletion (under light irradiation - without light irradiation) NAC (%): 51.3%
[7]; [14]
  Difference in depletion (under light irradiation - without light irradiation) NAC (%): 79.4%
[7]; [20]
  NAC Depletion (%) under light irradiation: 51.3%
[7]; [19]
  NAC Depletion (%) under light irradiation: 79.4%
[7]; [15]
  NAC Depletion (%) without light irradiation: 0.0%
[7]; [16]
  NAC Depletion (%) without light irradiation: 0.0%
[7]; [17]
  NAC Depletion (%) without light irradiation: 0.0%
[4]; [12]
  Difference in depletion (under light irradiation - without light irradiation) Average score (%): 11.8%
[4]; [14]
  Difference in depletion (under light irradiation - without light irradiation) Average score (%): 40.6%
[4]; [18]
  Average score (%) under light irradiation: 11.8%
[4]; [19]
  Average score (%) under light irradiation: 40.6%
[4]; [15]
  Average score (%) without light irradiation: 0.0%
[4]; [16]
  Average score (%) without light irradiation: 0.0%
[4]; [17]
  Average score (%) without light irradiation: 0.0%
[8]; [13]
  Difference in depletion (under light irradiation - without light irradiation) NAC (%): 49.9%
  NAC Depletion (%) under light irradiation: 49.9%
[8]; [14]
  Difference in depletion (under light irradiation - without light irradiation) NAC (%): 78.2%
  NAC Depletion (%) under light irradiation: 78.2%
[8]; [15]
  NAC Depletion (%) without light irradiation: 0.0%
[8]; [16]
  NAC Depletion (%) without light irradiation: 0.0%
[8]; [17]
  NAC Depletion (%) without light irradiation: 0.0%
